Results published in ChEMBL document CHEMBL1132103, “Acylcarnitine analogues as topical, microbicidal spermicides” (1999).
In brackets after ≈: the same amount, converted by molar mass. Activity calls are given as the source filed them. The calls are words filed in the database; no cut-off is given here.

Tests used:
[1] = test system: Human immunodeficiency virus 1; assay: In vitro inhibition of HIV-1 (RF strain) using cell-free inactivation assay at concentration of 0.032 mg/mL; assay type: functional, organism-based
Homo sapiens [2] = species on record: Homo sapiens; assay: In vitro spermicidal activity using spermicidal dilution at 48.0 +/-5.1 mg/mL in the Sander-Cramer test; assay type: functional; conditions: read-out: MEC
[3] = test system: Human immunodeficiency virus 1; assay: In vitro inhibition of HIV-1 (RF strain) using cell-free inactivation assay at concentration of 10 mg/mL; assay type: functional, organism-based
[4] = test system: Human immunodeficiency virus 1; assay: In vitro inhibition of HIV-1 (RF strain) using cell-free inactivation assay at concentration of 0.32 mg/mL; assay type: functional, organism-based
Candida albicans = assay: Minimum inhibitory concentration required for growth inhibition of Candida albicans; assay type: functional
[5] = test system: Human immunodeficiency virus 1; assay: In vitro inhibition of HIV-1 (RF strain) using cell-free inactivation assay at concentration of 0.1 mg/mL; assay type: functional, organism-based
[6] = test system: Human immunodeficiency virus 1; assay: In vitro inhibition of HIV-1 (RF strain) using cell-free inactivation assay at concentration of 3.2 mg/mL; assay type: functional, organism-based
[7] = test system: Human immunodeficiency virus 1; assay: In vitro inhibition of HIV-1 (RF strain) using cell-free inactivation assay at concentration of 1.0 mg/mL; assay type: functional, organism-based
Homo sapiens [8] = species on record: Homo sapiens; assay: In vitro spermicidal activity using spermicidal dilution at 27.2 +/- 2.3 mg/mL in the Sander-Cramer test; assay type: functional; conditions: read-out: MEC
[9] = test system: Human immunodeficiency virus 1; assay: In vitro inhibition of HIV-1 (RF strain) using cell-free inactivation assay at concentration of 0.1 mg/mL; NA: Not active; assay type: functional, organism-based
[10] = test system: Human immunodeficiency virus 1; assay: In vitro inhibition of HIV-1 (RF strain) using cell-free inactivation assay at concentration of 0.032 mg/mL; NA: Not active; assay type: functional, organism-based
Homo sapiens [11] = species on record: Homo sapiens; assay: In vitro spermicidal activity using spermicidal dilution at 4.8 +/- 0.5 mg/mL in the Sander-Cramer test; assay type: functional; conditions: read-out: MEC
Homo sapiens [12] = species on record: Homo sapiens; assay: In vitro spermicidal activity using spermicidal dilution at 102.4 +/- 13.5 mg/mL in the Sander-Cramer test; assay type: functional; conditions: read-out: MEC
Homo sapiens [13] = species on record: Homo sapiens; assay: In vitro spermicidal activity using spermicidal dilution at 134.4 +/- 14.2 mg/mL in the Sander-Cramer test; assay type: functional; conditions: read-out: MEC
Homo sapiens [14] = species on record: Homo sapiens; assay: In vitro spermicidal activity using spermicidal dilution at 7.6 +/- 0.4 mg/mL in the Sander-Cramer test; assay type: functional; conditions: read-out: MEC

Row | Structure (SMILES) | MIC (Candida albicans) [µg/mL] | Activity [1] | minimal effective concentration (Homo sapiens [2]) [µg/mL] | Activity [3] | Activity [4] | Activity [5] | Activity [6] | Activity [7] | minimal effective concentration (Homo sapiens [8]) [µg/mL] | Activity [9] | Activity [10] | minimal effective concentration (Homo sapiens [11]) [µg/mL] | minimal effective concentration (Homo sapiens [12]) [µg/mL] | minimal effective concentration (Homo sapiens [13]) [µg/mL] | minimal effective concentration (Homo sapiens [14]) [µg/mL]
1 | CCCCCCCCCCCC[C@@]1(O)C[N+](C)(C)C[C@@H](CC(=O)[O-])O1 | 80 (≈ 224 µM) | 0 | – | > 4 | 2 | 0.3 | > 3.5 | 2.8 | 407 | – | – | – | – | – | –
2 | CCCCCCCCCC[C@@]1(O)C[N+](C)(C)C[C@@H](CC(=O)[O-])O1 | > 100 | – | – | > 4 | 0.8 | – | 2.8 | 1 | – | inactive | inactive | 2300 | – | – | –
3 | CCCCCCCCCCC[C@@]1(O)C[N+](C)(C)C[C@@H](CC(=O)[O-])O1 | > 100 | – | – | 4.7 | 0.8 | – | 2.7 | 2 | – | inactive | inactive | – | – | – | 1400

Molecules with a lower MIC (Candida albicans), results first:

Row | MIC (Candida albicans) [µg/mL] | Structure (SMILES) | Activity [1] | minimal effective concentration (Homo sapiens [2]) [µg/mL] | Activity [3] | Activity [4] | Activity [5] | Activity [6] | Activity [7] | minimal effective concentration (Homo sapiens [8]) [µg/mL] | Activity [9] | Activity [10] | minimal effective concentration (Homo sapiens [11]) [µg/mL] | minimal effective concentration (Homo sapiens [12]) [µg/mL] | minimal effective concentration (Homo sapiens [13]) [µg/mL] | minimal effective concentration (Homo sapiens [14]) [µg/mL]
4 | 40 (≈ 108 µM) | CCCCCCCCCCCCC[C@@]1(O)C[N+](C)(C)C[C@@H](CC(=O)[O-])O1 | 0.5 | 235 | 3.5 | 2.7 | 1.5 | 3.5 | 3.3 | – | – | – | – | – | – | –
5 | 10 (≈ 25.9 µM) | CCCCCCCCCCCCCC[C@@]1(O)C[N+](C)(C)C[C@@H](CC(=O)[O-])O1 | 0.5 | – | > 4 | 2.8 | 1.5 | > 4 | 3.5 | – | – | – | – | 121 | – | –
6 | 2 (≈ 5 µM) | CCCCCCCCCCCCCCC[C@@]1(O)C[N+](C)(C)C[C@@H](CC(=O)[O-])O1 [HEMIACYLCARNITINIUM] | 0.3 | – | > 4 | 2.7 | 1.5 | 3.8 | 3.2 | – | – | – | – | – | 109 | –
